Key:
Snail = assay: Western blot of Snail protein; format: cell-based, human; settings: for effect of chloroquine (CQ) on Snail levels: MP or MOG combined with CQ
Protocol: (§1) Cells were harvested, washed with PBS, and lysed on ice with RIPA buffer containing protease and phophatase inhibitor cocktail (GenDEPOT). After 15 minutes of incubation, the cell lysates were centrifuged at 15,000 rpm at 4° C. for 10 minutes. Protein concentration was measured by Bradford assay (Bio-rad, 500-0006). Equal amounts of total protein were placed on an SDS gel electrophoresis and transferred to a PVDF membrane (Bio-rad). The membrane was blocked with 5% skim milk for 1 hour at room temperature and incubated overnight at 4° C. with primary antibody in a buffer containing 0.1% Tween-20. Subsequently, the membrane was washed three times with Tween-PBS buffer and incubated for 1 hour at room temperature using a secondary antibody diluted in blocking buffer containing 0.1% Tween-20. Subsequently, the membrane was washed three times for 10 minutes each using Tween-TBS. Densitometry of Western blots was measured using ImageJ software.
[…] For autophagy activation, cells were'treated with 2 μM rapamycin (Selleckchem, S1039) for 5 hours. Modulation of intracellular ROS was performed with N-acetyl-cysteine (10 mM) (Sigma, A7250), hydrogen peroxide solution (100 μM to 200 μM) (Sigma, 216763), or CDDO-ME NRF2 activator (50 nM, 100 nM) (Sellckchem, S8078) for 4 to 24 hours. Intercellular calcium signal control was performed for 1 hour using BAPTA-AM (20 μM) (Sigma, A1076) or Calmidazolium Chloride (2.5 μM) (Sigma, C3930). […] For TFEB protein phosphorylation, tacrolimus (1 μM) (Selleckchem, S5003) was treated for 1 hour. […] During siRNA treatment, each siRNA was treated to a concentration of 40 to 50 nM and treated together with Lipofectamine RNAiMax (Thermo Fisher Scientific, 13778150) for transformation, and were used for experiments 48 to 72 hours later. For cDNA treatment, each cDNA was treated to a concentration of 1 to 2 μg in a 6-well plate and treated with Lipofectamine 2000 (Thermo Fisher Scientific, 11668019) for transformation, and were used for experiments 24 hours later.

Intracellular citrate = assay: Citrate assay; format: cell-based, human; settings: HBEC-KL; 8 mM MP or 3 mM MOG in the presence of 50 uM CQ
Protocol: Intracellular citrate levels were calculated in the pmol range using a citrate assay kit (Biovision, K655). After sonication, proteins were removed from the supernatant using a 10 kDa molecular weight cutoff spin column, followed by incubation at room temperature for 30 minutes with 50 μl citrate reaction mixture comprising enzyme mixture, developer and citrate probe. Citrate content was measured by reading OD 570 nm with an Envision Multimode Plate Reader (PerkinElmer 2105-0010, Waltham, MA, USA). After correcting the background in all readings, the value of each sample was determined and normalized to the protein concentration of each sample.

LC3 = assay: Autophagic flux (LC3 Western blot, mRFP-GFP-LC3 lysosomal delivery assay); format: cell-based, human; settings: HBEC-KL cell line; NAC or 50 uM STO-609, 24 hours
Protocol: as §1, with “Representative GFP-LC3, RFP-LC3 and overlapping images are shown. In addition, red puncta (mRFP+/GFP−) and yellow puncta (mRFP+/GFP+) per cell were quantified and graphed (n=15 cells/treatment). Cells” for “Cells”

acetylated Snail = assay: Immunoprecipitation-immunoblot of acetylated Snail; format: cell-based, human; settings: A549 luciferase cell line in vitro; 50 uM STO-609, 24 hours
Protocol: (§2) Cell lysates (1 μg protein) were incubated overnight at 4° C. on anti-FLAG® M2 Affinity Gel (Sigma, A2220) or anti-acetyl-lysine antibody coated agarose (ImmuneChem Pharmaceuticals, ICP0388). The immunoprecipitate was then washed three times in IP buffer, and the immunoprecipitated complex was dissolved and separated by boiling in IP buffer for 5 minutes.
For SDS-PAGE electrophoresis, the immunoprecipitated complex was transferred to a nitrocellulose membrane and the membrane was blocked and then incubated for 1 hour at room temperature with Primary antibody and secondary antibody (VeriBlot for IP Detection Reagent (HRP) (Abcam, #ab131366), and anti-mouse IgG tor IP (HRP) (Abeam, #ab131368)).
After washing 3 times, the membrane was incubated with the secondary antibody.

TFEB = assay: Western blot / immunoprecipitation-immunoblot of TFEB (acetylated, phosphorylated, total); format: cell-based, human; settings: HBEC-KL; 50 uM STO-609, 24 hours
Protocol: FIG. 11J illustrates a diagram of immunoblot results of the […] a control (left), and the immunoprecipitation-immunoblot result of TFEB acetylated HBEC-KL cells under the same conditions (right) is also shown,
as §1
as §2, with “For immunoprecipitation, equal amounts of lysate and Co-IP buffer (40 mM HEPES, pH 7.4, 120 mM NaCl, 2 mM EDTA, 0.3% CHAPS (Sigma, 10810118001), 10 mM pyrophosphate (Sigma, 221368), 10 mM glycerophosphate (Sigma, G9422), 50 mM NaF, phosphatase and protease inhibitor mixture) were mixed. Cell” for “Cell”

A549-luc cells = assay: A549-luc tail vein injection metastasis model; format: in vivo; settings: nude mice; 25 mg/kg, 100 mg/kg, qd, p.o. 28 consecutive days; compared to the vehicle-treated group
Protocol: FIG. 13E illustrates role of STO-609 on cancer metastasis in an A549-luc tail vein injection model. After intravenous injection of A549-luc cells into nude mice, vehicle or STO-609 (25 mg/kg and 100 mg/kg qd) was injected for 28 days starting one day after the injection. A picture taken of a bioluminescent image when 4 weeks have elapsed after injection is shown (above). Analysis results of the total metastasis burden by photonic flux are shown (below). FIG. 13H illustrates the role of BMS303141 on cancer metastasis in an A549-luc tail vein injection model. A549-luc cells were intravenously injected into nude mice, and then vehicle or BMS303141 (100 mg/kg q.d.) was injected for 20 days starting one day after the injection. A bioluminescence image when 3 weeks have elapsed after injection is shown. 7- to 9-week-old BALB/c-nu Sic mice were obtained from SLC, Inc. (Shizuoka, Japan) and used, A549-luc cells (#JCRB1414) or SNAI1 shRNA-mediated knockdown A549-luc cells were injected at 3-4.5×10^6 cells through the tail vein of mice. After 3 to 4 weeks, metastasis was monitored by bioluminescence imaging analysis. More specifically, after injecting D-luciferin (75 mg/kg) (PerkinElmer, 122799) into the abdominal cavity of the mouse, images were obtained using an IVIS imaging system (IVIS 200, PerkinElmer, Waltham, MA, USA) in the supine position. Lung tissue was obtained for histopathological analysis. Images were analyzed using commercially available software (ImageScope; Aperio Technologies). In the STO-609 efficacy test, STO-609 (25 mg, 100 mg/kg/day) was orally administered to mice on the day of injection. In the BMS303141 efficacy test, BMS303141 (100 mg/kg/day) was orally administered to mice on the day of injection.

Structure (SMILES)	expression level of Snail decreased by siIDH1 (Snail; HBEC-KL, 3 mM MOG)	Snail levels when ACLY was reduced (Snail; HBEC-KL, MOG supplemented condition, ACLY siRNA)	effect of chloroquine (CQ) on Snail levels (Snail; HBEC-KL)	effect of chloroquine (CQ) on citrate levels (Intracellular citrate)	Snail protein (Snail; HBEC-KL cell line, STO-609)	abnormal increase in Snail expression level by AMG-510 (Snail; KL cell lines, 1 uM AMG-510 and 50 uM STO-609)	autophagic flux (LC3)	acetylated Snail (acetylated Snail)	acetylated TFEB (TFEB)	total metastasis burden (photonic flux) (A549-luc cells)	total number of lung metastases (A549-luc cells)	Snail expression level decreased by siCS (Snail; HBEC-KL, 8 mM MP)
COC(=O)CCC(=O)C(=O)OC [MOG, dimethyl-2-oxoglutarate]	restored	did not recover	completely reverses	completely reverses								
O=C(O)c1ccc2c3c1cccc3c(=O)n1c3ccccc3nc21 [STO-609]					reduction	reduced	decreased	reduced	reduces	reduced	reduced	
COC(=O)C(C)=O [MP, methyl pyruvate]			completely reverses	completely reverses								not increased
